According to patent publication US8124641B2, “Aminotetrahydroindazoloacetic acids” (Hoffmann-La Roche Inc., priority 2008, dated 2012):

Target: T1, human CRTH2 (Homo sapiens, UniProt Q9Y5Y4)
T1 construct: expressed in transfected cells
T1 sequence (Q9Y5Y4 1-395): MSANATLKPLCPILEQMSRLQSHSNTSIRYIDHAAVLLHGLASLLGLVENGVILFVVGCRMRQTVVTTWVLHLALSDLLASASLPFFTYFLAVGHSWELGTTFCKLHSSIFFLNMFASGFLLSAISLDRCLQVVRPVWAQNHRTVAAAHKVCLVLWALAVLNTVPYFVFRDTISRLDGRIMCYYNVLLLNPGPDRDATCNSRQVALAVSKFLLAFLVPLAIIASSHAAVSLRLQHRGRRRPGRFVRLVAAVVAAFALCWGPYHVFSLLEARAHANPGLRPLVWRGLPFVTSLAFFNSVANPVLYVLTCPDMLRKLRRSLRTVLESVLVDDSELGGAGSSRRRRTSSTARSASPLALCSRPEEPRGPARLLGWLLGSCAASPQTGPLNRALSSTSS
Test: Human CRTH2 Receptor Binding Assay (whole cell, [3H]ramatroban competition)
Conditions: CHO-K1 cells stably expressing human CRTH2 and G-alpha16; 20 nM [3H]ramatroban; 1 hour, room temperature
Description: A whole cell receptor binding assay using [^3H]ramatroban as the competing radioactive ligand was employed to evaluate the compound binding activity to human CRTH2. The radioactive ligand [^3H]ramatroban was synthesized according to Sugimoto et. al. (Eur. J. Pharmacol. 524, 30-37, 2005) to a specific activity of 42 Ci/mmol.
A cell line stably expressing human CRTH2 was established by transfecting CHO-K1 cells with two mammalian expression vectors that harbored human CRTH2 and G-alpha16 cDNAs, respectively, using FuGene® 6 transfection reagent (from Roche). Stable clones expressing CRTH2 were selected by staining each clone with BM16 (BD Pharmingen™ from BD Biosciences, a division of Becton, Dickinson and Company), which is a rat monoclonal antibody to human CRTH2. The cells were maintained as monolayer cultures in Ham's F-12 medium containing 10% fetal bovine serum, 100 units/mL penicillin, 100 μg/mL streptomycin, 2 mM glutamine, 0.5 mg/mL G418 (geneticin) for CRTH2, and 0.2 mg/mL hygromycin-B (for G-alpha 16). For whole cell receptor binding assay, the monolayer cells were rinsed once with PBS (phosphate buffered saline), dissociated using ethylenediaminetetraacetate (Versene™ EDTA from Lonza Inc.), and suspended in PBS containing 10 mM MgCl2 and 0.06% BSA (bovine serum albumin) at 1.5×10^6 cells/mL.
The binding reactions (0.2 mL) were performed in 96-well plates at room temperature in PBS containing 1.5×10^5 cells, 10 mM MgCl2, 0.06% BSA, 20 nM [^3H]ramatroban, and test compound at various concentrations. After 1 hour of binding reactions, the cells were harvested on GF™/B filter microplates (microtiter plates with embedded glass fiber from PerkinElmer, Inc.) and washed 5 times with PBS using a Filtermate™ Harvester (a cell harvester that harvests and washes cells from microplates from PerkinElmer, Inc.). The radioactivities bound to the cells were determined using a microplate scintillation counter (TopCount® NXT, from PerkinElmer, Inc.) after adding 50 μL of Microscint™ 20 scintillation fluid (from PerkinElmer, Inc.) to each well of the filter plates. The radioactivity from non-specific binding was determined by replacing compound with 10 μM of 15(R)-15-methyl PGD2 (from Cayman Chemical Company) in the reaction mixtures. The radioactivity bound to the cells in the absence of compound (total binding) was determined by replacing compound with 0.25% of DMSO (dimethyl sulfoxide) in the reaction mixture. Specific binding data were obtained by subtracting the radioactivity of non-specific binding from each binding data.
The IC50 value is defined as the concentration of the tested compound that is required for 50% inhibition of total specific binding. In order to calculate the IC50 value, the percent inhibition data were determined for 7 concentrations for each compound. The percent inhibition for a compound at each concentration was calculated according to the following formula, [1−(specific binding in the presence of compound)/(total specific binding)]×100. The IC50 value was then obtained by fitting the percent inhibition data to a sigmoidal dose-response (4 parameter logistic) model in the XLfit® software Excel add-in program [from ID Business Solutions Ltd., model 205, where F(x)=(A+(B−A)/(1+((C/x)^D)))].

| IC50 [nM] | SMILES |
| --- | --- |
| 13 | O=C(O)Cn1ncc2c1CCC[C@H]2NS(=O)(=O)c1cc(Br)cc(C(F)(F)F)c1 [Example 1-1a, [(R)-4-(3-Bromo-5-trifluoromethyl-benzenesulfonylamino)-4,5,6,7-tetrahydro-indazol-1-yl]-acetic acid] |
| 386 | O=C(O)Cn1ncc2c1CCCC2NS(=O)(=O)c1cc(Cl)cc(Cl)c1 (centres unmarked) [Example 1-2a, [4-(3,5-Dichloro-benzenesulfonylamino)-4,5,6,7-tetrahydro-indazol-1-yl]-acetic acid] |
| 234 | O=C(O)Cn1ncc2c1CCCC2NS(=O)(=O)c1ccc(Cl)cc1Cl (centres unmarked) [Example 1-3a, [4-(2,4-Dichloro-benzenesulfonylamino)-4,5,6,7-tetrahydro-indazol-1-yl]-acetic acid] |
| 16.4 | O=C(O)Cn1ncc2c1CCC[C@H]2NS(=O)(=O)c1cc(C(F)(F)F)cc(C(F)(F)F)c1 [Example 1-4a, [(R)-4-(3,5-Bis-trifluoromethyl-benzenesulfonylamino)-4,5,6,7-tetrahydro-indazol-1-yl]-acetic acid] |
| 225 | Cc1ccc(S(=O)(=O)NC2CCCc3c2cnn3CC(=O)O)cc1[N+](=O)[O-] (centres unmarked) [Example 1-5a, [4-(4-Methyl-3-nitro-benzenesulfonylamino)-4,5,6,7-tetrahydro-indazol-1-yl]-acetic acid] |
| 397 | Cc1cc(C)cc(S(=O)(=O)NC2CCCc3c2cnn3CC(=O)O)c1 (centres unmarked) [Example 1-6a, [4-(3,5-Dimethyl-benzenesulfonylamino)-4,5,6,7-tetrahydro-indazol-1-yl]-acetic acid] |
| 35.7 | O=C(O)Cn1ncc2c1CCCC2NS(=O)(=O)c1cc(Br)cc(C(F)(F)F)c1 (centres unmarked) [Example 1-7a, [4-(3-Bromo-5-trifluoromethyl-benzenesulfonylamino)-4,5,6,7-tetrahydro-indazol-1-yl]-acetic acid] |
| 431 | O=C(O)Cn1ncc2c1CCCC2NS(=O)(=O)c1ccc(Br)c(F)c1 (centres unmarked) [Example 1-8a, [4-(4-Bromo-3-fluoro-benzenesulfonylamino)-4,5,6,7-tetrahydro-indazol-1-yl]-acetic acid] |
| 277 | Cc1cc(S(=O)(=O)NC2CCCc3c2cnn3CC(=O)O)ccc1Br (centres unmarked) [Example 1-9a, [4-(4-Bromo-3-methyl-benzenesulfonylamino)-4,5,6,7-tetrahydro-indazol-1-yl]-acetic acid] |
| 119 | O=C(O)Cn1ncc2c1CCCC2NS(=O)(=O)c1ccc(Br)c(C(F)(F)F)c1 (centres unmarked) [Example 1-10a, [4-(4-Bromo-3-trifluoromethyl-benzenesulfonylamino)-4,5,6,7-tetrahydro-indazol-1-yl]-acetic acid] |
| 291 | O=C(O)Cn1ncc2c1CCCC2NS(=O)(=O)c1cnc(Cl)c(Br)c1 (centres unmarked) [Example 1-11a, [4-(5-Bromo-6-chloro-pyridine-3-sulfonylamino)-4,5,6,7-tetrahydro-indazol-1-yl]-acetic acid] |
| 53.3 | COc1cc(C(F)(F)F)cc(S(=O)(=O)N[C@@H]2CCCc3c2cnn3CC(=O)O)c1 [Example 1-12a, [(R)-4-(3-Methoxy-5-trifluoromethyl-benzenesulfonylamino)-4,5,6,7-tetrahydro-indazol-1-yl]-acetic acid] |
| 205 | O=C(O)Cn1ncc2c1CCCC2NS(=O)(=O)c1cc(C(F)(F)F)ccc1C(F)(F)F (centres unmarked) [Example 1-13a, [4-(2,5-Bis-trifluoromethyl-benzenesulfonylamino)-4,5,6,7-tetrahydro-indazol-1-yl]-acetic acid] |
| 43.2 | CS(=O)(=O)c1cccc(S(=O)(=O)NC2CCCc3c2cnn3CC(=O)O)c1 (centres unmarked) [Example 1-14a, [4-(3-Methanesulfonyl-benzenesulfonylamino)-4,5,6,7-tetrahydro-indazol-1-yl]-acetic acid] |
| 262 | COc1ccc(S(=O)(=O)NC2CCCc3c2cnn3CC(=O)O)cc1C(F)(F)F (centres unmarked) [Example 1-15a, [4-(4-Methoxy-3-trifluoromethyl-benzenesulfonylamino)-4,5,6,7-tetrahydro-indazol-1-yl]-acetic acid] |
| 5.9 | CS(=O)(=O)c1cc(S(C)(=O)=O)cc(S(=O)(=O)N[C@@H]2CCCc3c2cnn3CC(=O)O)c1 [Example 1-16a, [(R)-4-(3,5-Bis-methanesulfonyl-benzenesulfonylamino)-4,5,6,7-tetrahydro-indazol-1-yl]-acetic acid] |
| 381 | Cc1ccc(S(=O)(=O)NC2CCCc3c2cnn3CC(=O)O)cc1Cl (centres unmarked) [Example 1-17a, [4-(3-Chloro-4-methyl-benzenesulfonylamino)-4,5,6,7-tetrahydro-indazol-1-yl]-acetic acid] |
| 264 | O=C(O)CCn1ncc2c1CCC[C@H]2NS(=O)(=O)c1cc(C(F)(F)F)cc(C(F)(F)F)c1 [Example 1-18a, 3-[(R)-4-(3,5-Bis-trifluoromethyl-benzenesulfonylamino)-4,5,6,7-tetrahydro-indazol-1-yl]-propionic acid] |
| 12.1 | CN([C@@H]1CCCc2c1cnn2CC(=O)O)S(=O)(=O)c1cc(C(F)(F)F)cc(C(F)(F)F)c1 [Example 2-1a, {(R)-4-[(3,5-Bis-trifluoromethyl-benzenesulfonyl)-methyl-amino]-4,5,6,7-tetrahydro-indazol-1-yl}-acetic acid] |
| 97.8 | CN([C@@H]1CCCc2c1cnn2CC(=O)O)S(=O)(=O)c1ccc(Br)cc1Cl [Example 2-2a, {(R)-4-[(4-Bromo-2-chloro-benzenesulfonyl)-methyl-amino]-4,5,6,7-tetrahydro-indazol-1-yl}-acetic acid] |
| 78.6 | CN([C@@H]1CCCc2c1cnn2CC(=O)O)S(=O)(=O)c1ccc(C(F)(F)F)cc1Cl [Example 2-3a, {(R)-4-[(2-Chloro-4-trifluoromethyl-benzenesulfonyl)-methyl-amino]-4,5,6,7-tetrahydro-indazol-1-yl}-acetic acid] |
| 253 | CN([C@@H]1CCCc2c1cnn2CC(=O)O)S(=O)(=O)c1ccc(Br)cc1F [Example 2-4a, {(R)-4-[(4-Bromo-2-fluoro-benzenesulfonyl)-methyl-amino]-4,5,6,7-tetrahydro-indazol-1-yl}-acetic acid] |
| 11.2 | CN([C@@H]1CCCc2c1cnn2CC(=O)O)S(=O)(=O)c1cc(Br)cc(C(F)(F)F)c1 [Example 2-5a, {(R)-4-[(3-Bromo-5-trifluoromethyl-benzenesulfonyl)-methyl-amino]-4,5,6,7-tetrahydro-indazol-1-yl}-acetic acid] |
| 50.2 | CN([C@@H]1CCCc2c1cnn2CC(=O)O)S(=O)(=O)c1cc(Br)cc(Br)c1 [Example 2-6a, {(R)-4-[(3,5-Dibromobenzenesulfonyl)-methyl-amino]-4,5,6,7-tetrahydro-indazol-1-yl}-acetic acid] |
| 166 | CN([C@@H]1CCCc2c1cnn2CC(=O)O)S(=O)(=O)c1cc(C(C)(C)C)cc(C(C)(C)C)c1 [Example 2-7a, {(R)-4-[(3,5-Di-tert-butyl-benzenesulfonyl)-methyl-amino]-4,5,6,7-tetrahydro-indazol-1-yl}-acetic acid] |
| 43.4 | CN([C@@H]1CCCc2c1cnn2CCC(=O)O)S(=O)(=O)c1cc(C(F)(F)F)cc(C(F)(F)F)c1 [Example 2-8a, 3-{(R)-4-[(3,5-Bis-trifluoromethyl-benzenesulfonyl)-methyl-amino]-4,5,6,7-tetrahydro-indazol-1-yl}-propionic acid] |
